SMILES strings stand for the structures. Read-outs that look alike come from different tables or passages of the source.

The target of assay [1] is T1, levetiracetam binding site (LBS) (Rattus norvegicus, UniProt Q02563).
T1 construct: host or cells: crude rat brain membranes (Noyer et al. 1995; Gillard et al. 2003)
To be noted: cited from earlier work; for displacement of LEV binding: rat brain LBS.

The target in the next assay is T2, hSV2C (Homo sapiens, UniProt Q496J9).
T2 construct: expressed in transfected cells; host or cells: COS-7, transient
T2 sequence (Q496J9 1-727): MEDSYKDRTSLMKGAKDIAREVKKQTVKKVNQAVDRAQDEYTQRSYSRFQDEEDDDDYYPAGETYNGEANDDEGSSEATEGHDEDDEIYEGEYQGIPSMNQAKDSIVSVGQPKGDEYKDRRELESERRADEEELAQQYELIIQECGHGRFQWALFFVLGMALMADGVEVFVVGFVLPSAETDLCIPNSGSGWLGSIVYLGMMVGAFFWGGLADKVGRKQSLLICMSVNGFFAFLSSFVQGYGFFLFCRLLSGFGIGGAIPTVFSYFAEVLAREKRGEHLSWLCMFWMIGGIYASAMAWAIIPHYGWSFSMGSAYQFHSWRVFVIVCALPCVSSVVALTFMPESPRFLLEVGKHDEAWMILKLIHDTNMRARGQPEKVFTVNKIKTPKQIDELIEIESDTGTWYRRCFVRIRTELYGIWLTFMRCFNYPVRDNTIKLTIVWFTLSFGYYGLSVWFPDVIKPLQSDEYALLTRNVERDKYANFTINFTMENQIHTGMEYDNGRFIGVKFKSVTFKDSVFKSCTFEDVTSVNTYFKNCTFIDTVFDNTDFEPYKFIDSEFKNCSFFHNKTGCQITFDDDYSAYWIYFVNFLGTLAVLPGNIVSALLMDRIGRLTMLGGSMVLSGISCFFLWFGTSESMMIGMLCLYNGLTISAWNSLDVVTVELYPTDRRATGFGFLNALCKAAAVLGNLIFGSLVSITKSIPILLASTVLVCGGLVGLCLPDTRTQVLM
In words: [3H]ucb 30889 binding to hSV2C in transient COS-7 system.

For assay [2], the target named is T1, levetiracetam binding site (LBS). In words: [3H]ucb 30889 binding on crude rat brain membranes (kinetics, saturation, competition).
The test system of a further assay is COS-7. Description: [3H]ucb 30889 binding in cell types. The protocol: To identify and characterize the LBS in situ, [^3H]ucb 30889 was used to map the LBS within the brain and to study both its cellular and subcellular distribution. For rat brain autoradiography, 25 μm slices were incubated with 1.3 nM [^3H]ucb 30889 for 120 min at 4° C. in 50 mM Tris-HCl buffer (pH 7.4). Binding assays with rat brain membranes and various neuronal cell lines were performed under similar conditions. […] For photolabeling, membranes were incubated with 40 nM [^3H]ucb 30889 for 120 min at 4° C. in the same buffer, followed by irradiation with UV-light for 30 min (Fuks et al., Eur. J. Pharmacol. 478:11-19 (2003)).
In addition, a PC12 cell line subclone, PC12a, which is low in LBS, was used to establish a pool of PC 12 cells expressing hSV2A under stable antibiotic selection.

The target in a further assay is T3, hSV2B (Homo sapiens, UniProt Q7L1I2).
T3 construct: expressed in transfected cells; host or cells: COS-7, transient
In words: [3H]ucb 30889 binding to hSV2B in transient COS-7 system.

For another assay, the target named is T4, soluble SV2A (Rattus norvegicus, UniProt Q02563).
T4 construct: the soluble protein maintains its native structural conformation in n-dodecyl-β-D-maltoside; from tissue; host or cells: rat brain membranes, detergent supernatant (100,000 g)
Description: binding to soluble SV2A (n-dodecyl-β-D-maltoside solubilized rat brain membranes).

Assay [3] has as its system LBS in peripheral tissues. Description: radioligand binding in peripheral tissues. More on the design: species or system rat. To be noted: 150 μg of protein/assay, 1.3 nM radioligand. The protocol:
(§1) Binding experiments were conducted on crude rat brain membranes at 4° C. as described in Noyer et al. (Euro. J. Pharmacol. 286: 137-146 (1995)). Incubation time for equilibrium studies was 120 min. For kinetic and competition studies, [^3H]ucb 30889 (30 Ci/mmol) was used at a concentration of 1.3 nM in 0.5 ml of a Tris-HCl (pH 7.4) buffer containing 2 mM Mg^2+. Localization of the LBS in brain substructures was assessed by autoradiography on 25 μm thick slices incubated under similar conditions. Slides were then washed twice for 10 min at 4° C. in 50 mM Tris-HCl (pH 7.4) containing 0.5% BSA, dried and exposed for 3 weeks to [^3H]Hyperfilm at −20° C. Non-specific binding (NSB) was determined by the inclusion of 1 mM LEV during the incubation period.
The limit of detection under the experimental conditions (150 μg of protein/assay and 1.3 nM of radioligand) was a Bmax of 200 fmol/mg protein.

Assay [4] has as its system LBS in peripheral tissues. The note with it: heart, kidneys, spleen, pancreas, adrenals, lungs and liver; radiolabel studies; cited from earlier work.
For a further assay, the target named is T5, LBS (Rattus norvegicus, UniProt Q02563).
T5 construct: from tissue; host or cells: rat brain (crude membranes; 25 µm sections for autoradiography)
Description: autoradiography of [3H]ucb 30889 binding on rat brain sections. The protocol: as §1

For assay [5], the system named is audiogenic-susceptible mouse. The note with it: cited from earlier work.
A further assay concerns the target T6, hSV2A (Homo sapiens, UniProt Q7L0J3).
T6 construct: expressed in transfected cells; host or cells: COS-7, transient, Lipofectamine 2000, pDEST 12.2 Gateway vector (CMV promoter)
In words: [3H]ucb 30889 binding to hSV2A transiently expressed in COS-7 cells. The note with it: displacement of [3H]ucb 30889, COS-7 cells. Background: Loss of bound radioactivity is the signal in a displacement assay; it reports binding, not function.

T1 sequence (Q02563 whole entry): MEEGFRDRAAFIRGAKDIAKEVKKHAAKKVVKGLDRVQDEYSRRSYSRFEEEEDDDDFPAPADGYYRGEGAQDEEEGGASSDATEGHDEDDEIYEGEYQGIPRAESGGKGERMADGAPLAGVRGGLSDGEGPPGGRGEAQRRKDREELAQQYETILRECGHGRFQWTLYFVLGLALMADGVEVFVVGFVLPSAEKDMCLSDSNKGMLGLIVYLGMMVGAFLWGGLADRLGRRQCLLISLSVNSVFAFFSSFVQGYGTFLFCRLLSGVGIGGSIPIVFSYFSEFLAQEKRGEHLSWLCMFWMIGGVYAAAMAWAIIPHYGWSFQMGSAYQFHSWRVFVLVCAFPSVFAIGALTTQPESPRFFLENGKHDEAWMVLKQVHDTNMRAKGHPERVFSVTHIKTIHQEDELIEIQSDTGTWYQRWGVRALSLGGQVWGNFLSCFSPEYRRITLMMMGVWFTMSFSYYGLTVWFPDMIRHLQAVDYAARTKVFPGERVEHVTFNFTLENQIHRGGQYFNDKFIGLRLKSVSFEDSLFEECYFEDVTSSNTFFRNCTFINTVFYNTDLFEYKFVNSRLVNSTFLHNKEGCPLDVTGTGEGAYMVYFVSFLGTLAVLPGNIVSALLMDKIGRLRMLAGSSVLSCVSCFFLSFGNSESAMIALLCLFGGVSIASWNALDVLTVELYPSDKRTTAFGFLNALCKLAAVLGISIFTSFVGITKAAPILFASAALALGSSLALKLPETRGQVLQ
T6 sequence (Q7L0J3 whole entry): as the sequence (Q02563 whole entry) above, with E53D, A62S, A71T, D144E, T154A, S440G, A482S, V572I, L634M counted along it
T4 sequence (Q02563 whole entry): as the sequence (Q02563 whole entry) above
T5 sequence (Q02563 whole entry): as above
T3 sequence (Q7L1I2 whole entry): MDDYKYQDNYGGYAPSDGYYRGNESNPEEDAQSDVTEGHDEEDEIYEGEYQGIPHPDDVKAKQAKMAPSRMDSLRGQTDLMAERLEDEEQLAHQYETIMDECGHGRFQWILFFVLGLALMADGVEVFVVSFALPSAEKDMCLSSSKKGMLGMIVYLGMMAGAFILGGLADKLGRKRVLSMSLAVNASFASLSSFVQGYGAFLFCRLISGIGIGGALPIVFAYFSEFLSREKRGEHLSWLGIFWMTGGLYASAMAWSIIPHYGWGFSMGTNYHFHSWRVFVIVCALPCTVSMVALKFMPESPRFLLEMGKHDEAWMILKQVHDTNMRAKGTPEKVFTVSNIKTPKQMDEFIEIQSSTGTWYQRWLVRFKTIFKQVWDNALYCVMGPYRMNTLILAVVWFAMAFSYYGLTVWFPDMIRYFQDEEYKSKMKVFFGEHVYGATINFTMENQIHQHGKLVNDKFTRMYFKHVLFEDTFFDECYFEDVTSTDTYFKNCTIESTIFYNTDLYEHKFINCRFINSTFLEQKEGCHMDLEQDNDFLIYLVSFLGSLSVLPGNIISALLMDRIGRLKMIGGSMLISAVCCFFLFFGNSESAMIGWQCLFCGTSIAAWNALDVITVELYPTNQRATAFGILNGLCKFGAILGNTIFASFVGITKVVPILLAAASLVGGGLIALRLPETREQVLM
Description for soluble SV2A: The rat brain membranes were diluted in a solubilization buffer (Tris-HCl 20 mM pH 7.4, 0.25 M sucrose, protease inhibitors Complete Roche) containing n-dodecyl-β-D-maltoside 15 mM and incubated for two hours at 4° C. Subsequently, the solution was centrifuged at 4° C. for one hour at 100,000 g. […] The supernatants were incubated with [^3H]ucb 30889 as described.

`NC(=O)N1c2ccccc2C=Cc2ccccc21` [carbamazepine]: the “displacement of LEV binding” value in assay [1] is “do not displace LEV binding”. On to `NC(=O)OCC(COC(N)=O)c1ccccc1` [felbamate], for which the “displacement of LEV binding” value in [1] was “do not displace LEV binding”. On to `NS(=O)(=O)Cc1noc2ccccc12` [zonisamide], for which the “displacement of LEV binding” value in assay [1] is given as “do not displace LEV binding”.

Consider `CC[C@@H](C(N)=O)N1CC(c2cccc(N=[N+]=[N-])c2)CC1=O` (stereo partly drawn) [ucb 30889, (2S)-2-[4-(3-azidophenyl)-2-oxopyrrolidin-1-yl]butanamide], for which, at hSV2C, the “binding to hSV2C” value was “no binding above background”. The same molecule gave a Bmax in assay [2] of 5054±704 fmol/mg protein. The “binding to untransfected COS-7 cell line” value in the assay on COS-7 is on record as “no binding above background”. The “binding to hSV2B” value on hSV2B is reported as “no binding above background”. Besides, the “affinity for soluble SV2A compared with native membrane” value on soluble SV2A was “equivalent to that exhibited by ligands to the native membrane”. For the same molecule, the “specific binding in peripheral tissues” value in assay [3] was “could not be detected”. For the molecule `CC[C@@H](C(N)=O)N1CCCC1=O` [levetiracetam, (S)-α-ethyl-2-oxo-1-pyrrolidine acetamide], the “specific binding in peripheral tissues” value in [4] is on record as “no specific binding”. For the same molecule, the “affinity for LBS” value in [1] (radioligand [3H]LEV) is “only micromolar affinity”. Also, at LBS, the “inhibition of [3H]ucb 30889 binding in brain sections” value is listed as “can be inhibited by levetiracetam at concentrations equivalent to those observed in in vitro binding”. In addition, in [5], the suppression of seizures result was “unexpected potent ability of LEV to suppress seizures”.

Turning to `Cc1ccsc1C(=CCCN1CCC[C@@H](C(=O)O)C1)c1sccc1C` [tiagabine], the “displacement of LEV binding” value in [1] was “do not displace LEV binding”. In the case of `CCC1(C)CC(=O)NC1=O` (centres unmarked) [ethosuximide], the “displacement of LEV binding” value in assay [1] is given as “competed with LEV”. With `CC[C@@H](C(N)=O)N1CCCC1=O` [ucb L060], the “affinity to hSV2A compared with LEV” value on hSV2A is on record as “significantly less affinity”. For the molecule `COc1ccc(C(=O)N2CCCC2=O)cc1` [aniracetam], the “displacement of LEV binding” value in assay [1] was “displaced LEV binding”.

Turning to `C=CC(N)CCC(=O)O` (centres unmarked) [vigabatrin], the “displacement of LEV binding” value in [1] is reported as “do not displace LEV binding”. For the molecule `O=C1NC(=O)C(c2ccccc2)(c2ccccc2)N1` [phenytoin], the “displacement of LEV binding” value in [1] is reported as “do not displace LEV binding”.

In the case of `CCCC(CCC)C(=O)O` [valproate], the “displacement of LEV binding” value in assay [1] was “do not displace LEV binding”.

(Values after US7465549B2 (UCB, S.A., priority 2002, dated 2008).)
